# Laboratory results reported in PubChem BioAssay (NCI).
# Values joined by “and” are separate entries in the source; they are usually repeats but may differ in a detail not shown here. Identical values can stand only once.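 Where inhibition never reached the appropriate level, the endpoint shown equals the highest concentration tested. Otherwise, values were interpolated linearly from a five-concentration, 48-hour dose response in 96-well plates. GI50 = concentration required for 50% inhibition of growth. TGI: total growth inhibition.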
# How the values were obtained:
# Assay in all cases: DTP human tumour cell line panel, 48 h
# SNB-75 CNS = tested on: SNB-75 CNS
# SF-295 CNS = tested on: SF-295 CNS
# DU-145 prostate = tested on: DU-145 prostate
# UO-31 renal = tested on: UO-31 renal
# OVCAR-3 ovarian = tested on: OVCAR-3 ovarian
# BT-549 breast = tested on: BT-549 breast
# HCT-116 colon = tested on: HCT-116 colon
# PC-3 prostate = tested on: PC-3 prostate
# HOP-62 NSCLC = tested on: HOP-62 NSCLC
# NCI-H23 lung = tested on: NCI-H23 lung
SMILES,TGI (SNB-75 CNS),TGI (SF-295 CNS),TGI (DU-145 prostate),TGI (UO-31 renal),TGI (OVCAR-3 ovarian),TGI (BT-549 breast),TGI (HCT-116 colon),TGI (PC-3 prostate),TGI (HOP-62 NSCLC),TGI (NCI-H23 lung),GI50 (SNB-75 CNS),GI50 (SF-295 CNS),GI50 (DU-145 prostate),GI50 (UO-31 renal),GI50 (OVCAR-3 ovarian),GI50 (BT-549 breast),GI50 (HCT-116 colon),GI50 (PC-3 prostate),GI50 (HOP-62 NSCLC),GI50 (NCI-H23 lung)
COc1ccc(S(=O)(=O)O)cc1NS(=O)(=O)c1ccc(C)cc1,> 100 µM,> 100 µM,> 100 µM,> 100 µM,> 100 µM,> 100 µM,> 100 µM,> 100 µM,> 100 µM,> 100 µM,–,–,–,–,–,–,–,–,–,–
CC(C)[C@@H](C(=O)O[C@@H]1/C=C/C(=O)O[C@@H](C)CCC/C=C/[C@@H]2C[C@H](O)C[C@H]21)[N+](C)(C)C,> 100 µM,> 100 µM,> 100 µM,> 100 µM,> 100 µM,> 100 µM,> 100 µM,> 100 µM,> 100 µM,> 100 µM,> 100 µM,> 100 µM,> 100 µM,> 100 µM,> 100 µM,> 100 µM,> 100 µM,> 100 µM,> 100 µM,> 100 µM
CC[C@](O)(C(=O)O)c1cc2n(c(=O)c1CO)Cc1cc3ccccc3nc1-2,0.201 µM and 0.0714 µM and 0.343 µM,0.101 µM and 0.0956 µM and 0.107 µM,0.559 µM and 0.417 µM,0.161 µM and 0.167 µM,0.323 µM and 1.18 µM and 0.866 µM,11.5 µM and 18.5 µM,0.622 µM,5.17 µM,–,–,0.00391 µM and 0.016 µM,0.0029 µM and < 0.0134 µM,< 0.0025 µM,0.0189 µM,0.0775 µM and 0.268 µM and 0.0965 µM,0.107 µM,–,0.113 µM,0.025 µM,0.0058 µM and 0.0215 µM
COc1ccc(/C=C/c2nc(N3CCOCC3)c3cc(F)c(F)cc3n2)cc1OC,> 100 µM,> 100 µM,> 100 µM,> 100 µM,> 100 µM,19.8 µM,> 100 µM,33.9 µM,> 100 µM,> 100 µM,6.14 µM,3.9 µM,8.79 µM,3.65 µM,6.08 µM,2.83 µM,3.53 µM,2.66 µM,50.7 µM,6.05 µM
Cc1cc(-c2ccccc2)c(C)n1Cc1ccc(Cl)cc1,> 100 µM,9.33 µM,> 100 µM,> 100 µM,23.5 µM,> 100 µM,23.4 µM,> 100 µM,> 100 µM,> 100 µM,3.17 µM,2.74 µM,6.87 µM,5.45 µM,3.54 µM,5.5 µM,3.8 µM,5.18 µM,6.12 µM,8.24 µM
COc1ccc(C(=O)Nc2ncc(Cc3ccc(F)cc3)s2)cc1,> 100 µM,2.03 µM,> 100 µM,> 100 µM,1.32 µM,> 100 µM,> 100 µM,> 100 µM,> 56.5 µM,> 100 µM,0.036 µM,0.0614 µM,0.138 µM,0.908 µM,0.0346 µM,0.642 µM,0.0519 µM,0.0513 µM,0.148 µM,0.368 µM
CC(=O)NNC(=O)c1nn(-c2ccc(Cl)cc2)cc1OC(C)=O,99.7 µM,> 100 µM,> 100 µM,> 86.8 µM,> 100 µM,> 100 µM,> 100 µM,> 25 µM,> 100 µM,97.2 µM,> 66.5 µM,15.9 µM,18.7 µM,17.5 µM,18.8 µM,28.8 µM,14.6 µM,5.07 µM,27.2 µM,22.2 µM
Cc1cc(C)cc(Nc2nccc(-c3c(-c4ccc(F)cc4)ncn3C3CCNCC3)n2)c1,5.24 µM,3.58 µM,3.14 µM,2.15 µM,2.87 µM,3.11 µM,2.36 µM,3.01 µM,3.95 µM,4.21 µM,1.25 µM,1.85 µM,1.46 µM,0.692 µM,1.39 µM,1.52 µM,1.13 µM,1.56 µM,2.04 µM,1.88 µM
COc1ccc(-c2nnc3n(C)c(=O)c4ccccc4n23)cc1O,27.6 µM,13 µM,> 100 µM,> 100 µM,12.7 µM,> 100 µM,> 50.3 µM,> 100 µM,19.8 µM,> 100 µM,0.161 µM,1.05 µM,2.22 µM,2.13 µM,0.162 µM,2.91 µM,0.161 µM,0.611 µM,0.176 µM,3.01 µM
CC1=C[C@H]2c3c(c(O)c(O)c4oc5cc(O)cc(O)c5c(=O)c34)[C@H](c3cc(O)c(O)c4oc5cc(O)cc(O)c5c(=O)c34)[C@H]2C(C)(C)C1,10.5 µM and 12.7 µM,6.32 µM and 4.96 µM,11.4 µM and 12.8 µM,3.28 µM and 8.22 µM,4.02 µM and 7.54 µM,8.48 µM and 6.24 µM,1.87 µM and 2.22 µM,7.41 µM and 5.46 µM,4 µM and 6 µM,2.95 µM and 3.39 µM,1.51 µM and 2.08 µM,1.98 µM and 1.63 µM,2.48 µM and 2.08 µM,1.38 µM and 1.55 µM,1.7 µM and 2 µM,0.664 µM and 1.87 µM,0.462 µM and 0.947 µM,1.96 µM and 1.8 µM,1.53 µM,1.04 µM and 1.21 µM
COC(=O)C1CC2(c3ccc(C)cc3)C(c3ccc(C)cc3)=C(c3ccc(C)cc3)C1(c1ccc(C)cc1)S2=O (configuration not stated),29.6 µM,> 100 µM,> 100 µM,> 100 µM,> 100 µM,> 100 µM,> 100 µM,> 100 µM,> 100 µM,> 100 µM,10.6 µM,57.6 µM,> 100 µM,> 100 µM,> 100 µM,> 100 µM,73.2 µM,> 100 µM,34.8 µM,> 100 µM
O=C1Nc2ccccc2C12CC(c1ccccc1)=NN2 (configuration not stated),59.4 µM,> 100 µM,51.1 µM,> 100 µM,80.7 µM,> 100 µM,> 100 µM,> 100 µM,> 100 µM,> 100 µM,2.98 µM,4.84 µM,9.63 µM,14.6 µM,5.1 µM,6.35 µM,4.83 µM,3.89 µM,8.79 µM,9.07 µM
